Measured values reported in patent publication US5877165A, “Boronated porhyrins and methods for their use” (priority 1997, dated 1999).

What was measured:
KHJJ mammary carcinomas = assay: Boron biodistribution, mice with KHJJ mammary carcinomas (Examples 8-12, Table 2); design: species or system BALB/c mice; conditions: mouse, in vivo
Procedure: Female BALB/c mice (Taconic Farms, Germantown, N.Y.) (20-25 g) were implanted with either KHJJ or EMT-6 tumors. For KHJJ tumors, 1-3 mm^3 tumor fragments were implanted subcutaneously (s.c.) in the dorsal thorax of each mouse using an 18-gauge trocar. For EMT-6 tumors, 2.5×10^5 cells were implanted similarly using a 27-gauge needle. EMT-6 tumor cells were grown alternately in vivo and in vitro. Single-cell suspensions were prepared from mouse-grown tumors by trypsinization. These were grown in cell culture for several passages and then were frozen in 10% DMSO and stored in liquid nitrogen. Prior to implantation in mice, the cells were thawed and grown in tissue culture in Alpha-MEM with 10% FBS for several passages.
(§1) Under deep halothane anesthesia leading to euthanasia, right ventricular blood was collected in Microtainer (Becton-Dickinson, Rutherford, N.J.) tubes containing EDTA for hematological analyses and boron assays of whole blood and in Microtainer™ tubes containing lithium heparin for chemical analyses and enzyme assays of blood plasma. Tumor, brain, fat, muscle, and liver tissues were sampled at necropsy for boron analyses.
Direct current plasma-atomic emission spectroscopy [DCP-AES] (ARL/Fisons Model SS-7) was used (detection limit: 0.1 μg/ml). Samples (50-130 mg) were digested at 60° C. with sulfuric acid:nitric acid (1:1). […]

[1] = Experiment I: hematological, chemical and enzymatic tests, mice bearing KHJJ tumors (Table 7); format: in vivo, BALB/c mice; conditions: 3 ip over 8 hr, ZnDPE 118, NiTCP 183 μg/gbw, median (range)
Procedure: (§2) Lipophilic porphyrins 1, 2, 4, 5, and 6 were injected as emulsions in either 3% or 9% CRM and either 6% or 18% PRG with saline as previously described in Example 2 above. Water soluble porphyrins 3 and 7 were dissolved in saline. BPA was solubilized as a fructose complex.
(§3) Female BALB/c mice (from Taconic Farms, Germantown, N.Y.) (20-25 g) were implanted with either KHJJ or EMT-6 tumors according to the procedure described in Example 3A above.
as §1
In Experiment I, NiTCP (183 μg/gbw) and lipophilic, heme derivative ZnDPE (118 μg/gbw) were compared in mice bearing KHJJ mammary tumors. The porphyrins were given as 3% CRM and 6% PrG emulsions in 3 ip injections given over 8 hrs. Animals were euthanized 15 hr, 39 hr, and 90 hr after the last injection.
(§4) Hematological, chemical and enzymatic tests were carried out as described in Example 3 above. Nonparametric statistical analyses were carried out using the Wilcoxon Two-Sample Test in accordance with procedures described in Slatkin, D.N., 1995. Boron analyses were conducted in accordance with the procedure described in Example 3 above. Fat and liver tissues were assayed for ^10 B by prompt-gamma spectroscopy as described in Fairchild, et al., 1986. These measurements were multiplied by 5.0 to give total boron concentrations due to the use of boron of natural isotope abundance in the syntheses of all boronated porphyrins reported.

EMT-6 mammary tumors = assay: Experiment III: boron concentrations in tissues, mice bearing EMT-6 tumors (Table 8); design: species or system BALB/c mice; conditions: mouse, in vivo, ip, 183 mg/kg
Procedure: as §2, §3, §1
In Experiment III, NiTCP and NiTCP-H were compared in mice bearing EMT-6 mammary tumors. Each porphyrin was administered via 6 i.p. injections over a period of 32 hours and the mice were euthanized 39 hours and 90 hours after the last injection.
as §4

Nickel Tetracarboranylphenylporphyrin [NiTCP]
retention of boron in tumor, in words (KHJJ mammary carcinomas): the ability to retain the therapeutic amounts of boron in the tumor for several days
time before average blood boron concentration falls below 1 ppm (KHJJ mammary carcinomas): 4 days
% Δw ([1]; 15 hr): 0.5 (^- 3.2-4.1) %
ALP ([1]; 15 hr): 80 (56-86)
ALT ([1]; 15 hr): 28 (21-32)
AST ([1]; 15 hr): 81 (60-146)
BCR ([1]; 15 hr): 0.5 (0.4-0.5)
BUN ([1]; 15 hr): 32 (27-41)
CPK ([1]; 15 hr): 66 (41-289)
GLU ([1]; 15 hr): 199 (183-262)
PLT ([1]; 15 hr): 733 (579-956)
% Δw ([1]; 39 hr): 3.9 (3.0-9.2) %
ALP ([1]; 39 hr): 71 (57-88)
ALT ([1]; 39 hr): 32 (27-153)
AST ([1]; 39 hr): 108 (76-442)
BCR ([1]; 39 hr): 0.4 (0.3-0.4)
BUN ([1]; 39 hr): 35 (32-43)
CPK ([1]; 39 hr): 167 (91-227)
GLU ([1]; 39 hr): 210 (183-260)
PLT ([1]; 39 hr): 826 (790-927)
% Δw ([1]; 90 hr): 7.8 (5.9-12.1) %
ALP ([1]; 90 hr): 40 (37-80)
ALT ([1]; 90 hr): 27 (26-33)
AST ([1]; 90 hr): 138 (46-285)
BCR ([1]; 90 hr): 0.4 (0.4-0.4)
BUN ([1]; 90 hr): 24 (14-34)
CPK ([1]; 90 hr): 69 (52-94)
GLU ([1]; 90 hr): 218 (172-242)
PLT ([1]; 90 hr): 790 (553-839)
Boron concentration, Blood (EMT-6 mammary tumors; 39 h): 2.8 (0.8-11.4) μg B/g
Boron concentration, Brain (EMT-6 mammary tumors; 39 h): 1.6 (1.0-2.5) μg B/g
Boron concentration, Liver (EMT-6 mammary tumors; 39 h): 201 (162-251) μg B/g
Boron concentration, Tumor (EMT-6 mammary tumors; 39 h): 40 (26-73) μg B/g
Boron concentration, Blood (EMT-6 mammary tumors; 90 h): 0.3 (0.1-0.3) μg B/g
Boron concentration, Brain (EMT-6 mammary tumors; 90 h): 4.2 (1.3-6.0) μg B/g
Boron concentration, Liver (EMT-6 mammary tumors; 90 h): 226 (176-284) μg B/g
